According to patent publication US20240228488A1 (TAKEDA PHARMACEUTICAL COMPANY LIMITED, priority 2021, published 2024):

Biological target: human activated kallikrein enzyme (Homo sapiens, UniProt P03952)
Experiment: Plasma kallikrein inhibition, fluorogenic PFR-AMC substrate, 500 pM activated kallikrein format
Type: biochemical
Settings: 500 pM activated kallikrein, 300 uM PFR-AMC, 30 min preincubation, 10 min reaction; read-out: Primary Dose Response Assay: Average EC50
Outline: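 Fluorogenic readout (ex 380 / em 460 nm) after 10 min room-temperature reaction with 300 uM Pro-Phe-Arg-AMC substrate, following 30 min preincubation of inhibitors with 500 pM enzyme. Buffer: Tris pH 7.5, EDTA, NaCl, PEG-400, Triton X-100. Values given as EC50 ranges.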

Sequence of human activated kallikrein enzyme (P03952 391-638 limits assumed): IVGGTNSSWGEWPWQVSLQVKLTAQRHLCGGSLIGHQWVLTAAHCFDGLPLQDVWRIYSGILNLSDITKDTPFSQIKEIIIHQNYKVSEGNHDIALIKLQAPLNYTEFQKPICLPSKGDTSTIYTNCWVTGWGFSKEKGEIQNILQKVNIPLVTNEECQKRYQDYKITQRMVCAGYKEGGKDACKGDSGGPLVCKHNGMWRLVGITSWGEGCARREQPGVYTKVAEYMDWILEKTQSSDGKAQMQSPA
Sequence of human activated kallikrein enzyme (P03952 20-390 partner limits assumed): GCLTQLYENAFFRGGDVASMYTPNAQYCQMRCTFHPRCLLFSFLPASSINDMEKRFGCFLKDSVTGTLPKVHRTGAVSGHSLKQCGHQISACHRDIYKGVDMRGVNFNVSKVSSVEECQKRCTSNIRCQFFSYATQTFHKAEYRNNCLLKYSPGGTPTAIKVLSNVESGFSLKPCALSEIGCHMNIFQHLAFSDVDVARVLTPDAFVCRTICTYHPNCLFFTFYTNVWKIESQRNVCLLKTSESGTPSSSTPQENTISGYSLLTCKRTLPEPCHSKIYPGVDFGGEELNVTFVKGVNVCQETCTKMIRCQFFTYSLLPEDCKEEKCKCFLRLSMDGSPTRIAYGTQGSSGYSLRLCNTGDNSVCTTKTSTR

First: Cc1ccnc([C@H]2C[C@@H]2C(=O)Nc2cc(F)c(Cl)c(NCc3cn4cc(C5CC5)cc(N5CC(=O)N(C)C5=O)c4n3)c2)n1 [Example 658, (1S,2S)—N-(4-chloro-3-(((6-cyclopropyl-8-(3-methyl-2,4-dioxoimidazolidin-1-yl)imidazo[1,2-a]pyridin-2-yl)methyl)amino)-5-fluorophenyl)-2-(4-methylpyrimidin-2-yl)cyclopropane-1-carboxamide]
Second: Cc1ccnc([C@H]2C[C@@H]2C(=O)Nc2cc(NCc3cn4cc(C5CC5)cc(N5CC(=O)N(C)C5=O)c4n3)c(F)cc2F)n1 [Example 659, (1S,2S)—N-(5-(((6-cyclopropyl-8-(3-methyl-2,4-dioxoimidazolidin-1-yl)imidazo[1,2-a]pyridin-2-yl)methyl)amino)-2,4-difluorophenyl)-2-(4-methylpyrimidin-2-yl)cyclopropane-1-carboxamide]
The EC50 of the first is lower: under 1 nM for the first, 1 to 10 nM for the second. The first is the more potent here.

First: NCc1cc(C2CC2)cn2cc(COc3ccnc(NC(=O)[C@H]4C[C@@H]4c4cccc(Cl)c4)c3)nc12 (racemic) [Example 572, rac-(1S*,2S*)—N-(4-((8-(aminomethyl)-6-cyclopropylimidazo[1,2-a]pyridin-2-yl)methoxy)pyridin-2-yl)-2(3-chlorophenyl)cyclopropane-1-carboxamide]
Second: O=C(Nc1cc(NCc2cn3cc(C4CC4)cc(N4CCCS4(=O)=O)c3n2)ccn1)[C@H]1C[C@@H]1c1cccc(Cl)c1 [Example 121]
The EC50 of the first is higher: 1 to 10 nM for the first, under 1 nM for the second.

Compared with `CCOC(=O)c1nc(NCc2cn3cc(C4CC4)ccc3n2)cc(NC(=O)[C@H]2C[C@@H]2c2cccc(Cl)c2)n1` (racemic) [Example 111, rac-ethyl 4-((1S*,2S*)-2-(3-chlorophenyl)cyclopropane-1-carboxamido)-6-(((6-cyclopropylimidazo[1,2-a]pyridin-2-yl)methyl)amino)pyrimidine-2-carboxylate], `O=C(Nc1ccnc(NCc2cn3cc(C4CC4)ccc3n2)n1)[C@H]1C[C@@H]1c1cccc(Cl)c1` (racemic) [Example 347, (rac-(1S*,2S*))-2-(3-chlorophenyl)-N-(2-(((6-cyclopropylimidazo[1,2-a]pyridin-2-yl)methyl)amino)pyrimidin-4-yl)cyclopropane-1-carboxamide] is higher in EC50: 1 to 10 nM for the first, 10 to 100 nM for the second. The first is the more potent here.

First: Cc1ccnc([C@@H]2C[C@H]2C(=O)Nc2cc(NCc3cn4cc(C5CC5)cc(S(C)(=O)=O)c4n3)ncn2)n1 (single isomer, unassigned) [Example 323]
Second: O=C(Nc1cc(NCc2cn3cc(C4CC4)ccc3n2)ncn1)[C@H]1C[C@@H]1c1nccc(Cl)n1 (racemic) [Example I-177, rac-(1S*,2S*)-2-(4-chloropyrimidin-2-yl)-N-(6-(((6-cyclopropylimidazo[1,2-a]pyridin-2-yl)methyl)amino)pyrimidin-4-yl)cyclopropane-1-carboxamide]
The EC50 of the first is higher: 10 to 100 nM for the first, under 1 nM for the second. The second is the more potent here.

`COC(=O)C1CN(c2cc(C3CC3)cn3cc(CNc4cc(NC(=O)[C@H]5C[C@@H]5c5cccc(Cl)c5)ncn4)nc23)CCN1C` (stereo partly drawn) [Example I-8, methyl 4-(2-(((6-((15,2S)-2-(3-chlorophenyl)cyclopropane-1-carboxamido)pyrimidin-4-yl)amino)methyl)-6-cyclopropylimidazo[1,2-α]pyridin-8-yl)-1-methylpiperazine-2-carboxylate] and `CNC(=O)c1cc(C2CC2)cn2cc(CNc3cc(NC(=O)[C@H]4C[C@@H]4c4cccc(Cl)c4)ncn3)nc12` [Example 303, 2-(((6-((1S,2S)-2-(3-chlorophenyl)cyclopropane-1-carboxamido)pyrimidin-4-yl)amino)methyl)-6-cyclopropyl-N-methylimidazo[1,2-a]pyridine-8-carboxamide] fall in the same range of EC50: 1 to 10 nM for the first, 1 to 10 nM for the second.

First: Nc1c(Cl)cccc1[C@H]1C[C@@H]1C(=O)Nc1cc(NCc2cn3cc(C4CC4)ccc3n2)ncn1 (racemic) [Example 280, rac-(1S*,2S*)-2-(2-amino-3-chlorophenyl)-N-(6-(((6-cyclopropylimidazo[1,2-a]pyridin-2-yl)methyl)amino)pyrimidin-4-yl)cyclopropane-1-carboxamide]
Second: Nc1cc(Cl)cc([C@H]2C[C@@H]2C(=O)Nc2cc(NCc3cn4cc(C5CC5)ccc4n3)ncn2)c1 (racemic) [Example I-256, rac-(1S*,2S*)-2-(3-amino-5-chlorophenyl)-N-(6-(((6-cyclopropylimidazo[1,2-a]pyridin-2-yl)methylamino)pyrimidin-4-yl)cyclopropane-1-carboxamide]
The EC50 of the first is higher: over 6000 nM for the first, 10 to 100 nM for the second.

First: Cc1ccnc([C@H]2C[C@@H]2C(=O)Nc2cc(N[C@H](C)c3cn4cc(C(C)F)cc(N5CC(=O)N(C)C5=O)c4n3)ncn2)n1 (stereo partly drawn) [Example 530, (1S,2S)-N-(6-(((1R)-1-(6-(1-fluoroethyl)-8-(3-methyl-2,4-dioxoimidazolidin-1-yl)imidazo[1,2-a]pyridin-2-yl)ethyl)amino)pyrimidin-4-yl)-2-(4-methylpyrimidin-2-yl)cyclopropane-1-carboxamide]
Second: Cc1nc(NC(=O)[C@H]2C[C@@H]2c2nsc(C)n2)cc(N[C@H](C)c2cn3cc(C4CC4)cc(N4CC(=O)N(C)C4=O)c3n2)n1 (relative stereo) [Example 527, rac-(1S*,2S*)-N-(6-(((R)-1-(6-cyclopropyl-8-(3-methyl-2,4-dioxoimidazolidin-1-yl)imidazo[1,2-a]pyridin-2-yl)ethyl)amino)-2-methylpyrimidin-4-yl)-2-(5-methyl-1,2,4-thiadiazol-3-yl)cyclopropane-1-carboxamide]
The EC50 of the first is lower: under 1 nM for the first, 1 to 10 nM for the second. The first is the more potent here.

First: Nc1ccc(Cl)cc1[C@H]1C[C@@H]1C(=O)Nc1nccc2nn(Cc3cn4cc(C5CC5)ccc4n3)cc12 (racemic) [Example 585, rac-(1S*,2S*)-2-(2-amino-5-chlorophenyl)-N-(2-((6-cyclopropylimidazo[1,2-a]pyridin-2-yl)methyl)-2H-pyrazolo[4,3-c]pyridin-4-yl)cyclopropane-1-carboxamide]
Second: O=C(Nc1cc(NCc2cn3cc(C4CC4)ccc3n2)c(F)cn1)[C@H]1C[C@@H]1c1cccc(Cl)c1 (racemic) [Example 86, rac-(1S*,2S*)-2-(3-chlorophenyl)-N-(4-(((6-cyclopropylimidazo[1,2-a]pyridin-2-yl)methyl)amino)-5-fluoropyridin-2-yl)cyclopropane-1-carboxamide]
The EC50 of the first is lower: 10 to 100 nM for the first, 100 to 1000 nM for the second.

First: Cc1ccnc([C@H]2C[C@@H]2C(=O)Nc2cc(NCc3cn4cc(C5CC5)ccc4n3)ccc2S(C)(=O)=O)n1 (racemic) [Example 619, rac-(1S*,2S*)—N-(5-(((6-cyclopropylimidazo[1,2-a]pyridin-2-yl)methyl)amino)-2-(methylsulfonyl)phenyl)-2-(4-methylpyrimidin-2-yl)cyclopropane-1-carboxamide]
Second: O=C(Nc1cc(NCc2cn3cc(C4CC4)ccc3n2)ccn1)[C@H]1C[C@@H]1c1ccc(Cl)s1 (racemic) [Example I-218, rac-(1S*,2S*)-2-(5-chlorothiophen-2-yl)-N-(4-(((6-cyclopropylimidazo[1,2-a]pyridin-2-yl)methyl)amino)pyridin-2-yl)cyclopropane-1-carboxamide]
The EC50 of the first is higher: 1000 to 6000 nM for the first, 10 to 100 nM for the second.

`CCOC(=O)CCOc1ccc(Cl)cc1[C@H]1C[C@@H]1C(=O)Nc1cc(NCc2cn3cc(C4CC4)ccc3n2)ncn1` (racemic) [Example 312, rac-ethyl 3-(4-chloro-2-((1S*,2S*)-2-((6-(((6-cyclopropylimidazo[1,2-a]pyridin-2-yl)methyl)amino)pyrimidin-4-yl)carbamoyl)cyclopropyl)phenoxy)propanoate] and `COc1ccc(C#N)c([C@H]2C[C@@H]2C(=O)Nc2cc(NCc3cn4cc(C5CC5)ccc4n3)ncn2)c1F` (racemic) [Example 314, rac-(1S*,2S*)-2-(6-cyano-2-fluoro-3-methoxyphenyl)-N-(6-(((6-cyclopropylimidazo[1,2-a]pyridin-2-yl)methyl)amino)pyrimidin-4-yl)cyclopropane-1-carboxamide] fall in the same range of EC50: 10 to 100 nM for the first, 10 to 100 nM for the second.

`O=C(Nc1cc(NCc2cn3cc(C4CC4)cc(N4CC5(C4)CN(C4CC4)C5)c3n2)ncn1)[C@H]1C[C@@H]1c1cccc(Cl)c1` [Example I-12, (1S,2S)-2-(3-chlorophenyl)-N-(6-(((6-cyclopropyl-8-(6-cyclopropyl-2,6-diazaspiro[3.3]heptan-2-yl)imidazo[1,2-a]pyridin-2-yl)methyl)amino)pyrimidin-4-yl)cyclopropane-1-scarboxamide] and `CN1CC(=O)N(c2cc(C3CC3)cn3cc(CNc4cc(NC(=O)[C@H]5C[C@@H]5c5cccc(Cl)c5)ncn4)nc23)C1=O` [Example I-171, (1S,2S)-2-(3-chlorophenyl)-N-(6-(((6-cyclopropyl-8-(3-methyl-2,5-dioxoimidazolidin-1-yl)imidazo[1,2-a]pyridin-2-yl)methyl)amino)pyrimidin-4-yl)cyclopropane-1-carboxamide] fall in the same range of EC50: 1 to 10 nM for the first, 1 to 10 nM for the second.

First: O=C(Nc1nnc(NCc2cn3cc(C4CC4)ccc3n2)s1)[C@H]1C[C@@H]1c1cccc(Cl)c1 [Example 606, (1S,2S)-2-(3-chlorophenyl)-N-(5-(((6-cyclopropylimidazo[1,2-a]pyridin-2-yl)methyl)amino)-1,3,4-thiadiazol-2-yl)cyclopropane-1-carboxamide]
Second: O=C(Nc1cc(N(CCO)Cc2cn3cc(C4CC4)ccc3n2)ncn1)[C@H]1C[C@@H]1c1cc(Cl)ccn1 [Example 328, (1S,2S)-2-(4-chloropyridin-2-yl)-N-(6-(((6-cyclopropylimidazo[1,2-a]pyridin-2-yl)methyl)(2-hydroxyethyl)amino)pyrimidin-4-yl)cyclopropane-1-carboxamide]
The EC50 of the first is higher: over 6000 nM for the first, 10 to 100 nM for the second. The second is the more potent here.

`Cc1ccnc([C@H]2C[C@@H]2C(=O)Nc2cc(CCc3cn4cc(C5CC5)cc(N5CC(=O)N(C)C5=O)c4n3)cnn2)n1` [Example 667, (1S,2S)—N-(5-(2-(6-cyclopropyl-8-(3-methyl-2,4-dioxoimidazolidin-1-yl)imidazo[1,2-a]pyridin-2-yl)ethyl)pyridazin-3-yl)-2-(4-methylpyrimidin-2-yl)cyclopropane-1-carboxamide] showed an EC50 of under 1 nM.
